Assay results from article PMC9944328 (Nature Communications, 2023).
Read-outs that look alike come from different tables or passages of the source.

System: SSTR2 mutants
Test: SSTRs Gi-mediated cAMP inhibition, GloSensor, HEK293, 5 μM forskolin, 15 min room temperature (SSTR2 mutants)
Type: cell-based, human
Set-up: Best-fit Bottom, cAMP inhibition / Best-fit Top, cAMP inhibition / Span, cAMP inhibition / Bottom (best-fit value) / Top (best-fit value) / Span (best-fit value) / Span (best-fit) / Bottom (best-fit) / Top (best-fit) / Best-fit Bottom / Best-fit Top / Best-fit Span / Top / Span: scale not given here
Experimental: The levels of the intracellular 3′, 5′-cyclic AMP (cAMP) were measured by the GloSensor cAMP assay (Promega) as described in the previous studies[28],[41] which has been widely used. The human full-length SSTRs and mutants were cloned into the pcDNA3.1+ vector with a HA signal sequence followed by a Flag tag at the N-terminus. HEK293 cells (ATCC, CRL-1573) were seeded into 6-well microplates at a density of 1.0 × 10^6 cells/well and cultured for 24 h at 37 °C with 5% CO2. Cells were then co-transfected with SSTR wild-type or mutants and GloSensor plasmids. After 24 h of transfection, the cells were dissociated with TrypLE™ Express Enzyme (1X) (Thermo Fisher Scientific) and collected by centrifugation at 500 × g for 5 min. Then the collected cells were suspended in Hank’s balanced salt solution [HBSS (Thermo Fisher Scientific)] supplemented with […] (YEASEN), and then the suspension cells were seeded into 96-well plates with 90 μl/well. After incubating at room temperature for 40 min, 5 μM forskolin and ligands diluted in HBSS were added to each well and the plates were incubated at room temperature for 15 min. […] were measured using the Synergy H1 microplate reader (BioTek) and the data presented are means of at least three independent experiments.

SMILES: C[C@@H](O)[C@@H]1NC(=O)[C@H](CCCCN)NC(=O)[C@@H](Cc2c[nH]c3ccccc23)NC(=O)[C@H](Cc2ccccc2)NC(=O)[C@@H](NC(=O)[C@H](N)Cc2ccccc2)CSSC[C@@H](C(=O)N[C@H](CO)[C@@H](C)O)NC1=O [octreotide]
- Best-fit Bottom (D295A-1): -10.23
- Best-fit Span (D295A-1): 99.42
- Best-fit Top (D295A-1): 89.19
- LogEC50 (D295A-1): -8.381
- EC50 (D295A-1, read-out: EC50): 4.16 nM
- Best-fit Bottom (D295A-2): 1.886
- Best-fit Span (D295A-2): 96.17
- Best-fit Top (D295A-2): 98.06
- LogEC50 (D295A-2): -8.514
- EC50 (D295A-2, read-out: EC50): 3.06 nM
- Best-fit Span (D295A-3): 116.5
- Best-fit Top (D295A-3): 121.2
- LogEC50 (D295A-3): -8.224
- EC50 (D295A-3, read-out: EC50): 5.97 nM
- Span (best-fit) (F208A-1): 78.86
- Span (best-fit) (F208A-2): 58.27
- Bottom (best-fit) (F265A-1): 0.9849
- LogEC50 (best-fit) (F265A-1): -7.854
- Span (best-fit) (F265A-1): 101.1
- Top (best-fit) (F265A-1): 102.1
- EC50 (F265A-1, read-out: EC50 (best-fit)): 14 nM
- Bottom (best-fit) (F265A-2): 21.57
- LogEC50 (best-fit) (F265A-2): -8.682
- Span (best-fit) (F265A-2): 69.47
- Top (best-fit) (F265A-2): 91.04
- EC50 (F265A-2, read-out: EC50 (best-fit)): 2.08 nM
- Bottom (best-fit) (F265A-3): 0.9849
- LogEC50 (best-fit) (F265A-3): -7.854
- Span (best-fit) (F265A-3): 101.1
- Top (best-fit) (F265A-3): 102.1
- Bottom (best-fit) (F272A-1): 2.117
- LogEC50 (best-fit) (F272A-1): -8.522
- Span (best-fit) (F272A-1): 53.6
- Top (best-fit) (F272A-1): 55.72
- EC50 (F272A-1, read-out: EC50 (best-fit)): 3 nM
- Bottom (best-fit) (F272A-2): 11.48
- LogEC50 (best-fit) (F272A-2): -6.317
- Span (best-fit) (F272A-2): 89.48
- Top (best-fit) (F272A-2): 101
- EC50 (F272A-2, read-out: EC50 (best-fit)): 482 nM
- Bottom (best-fit) (F272A-3): 14.59
- LogEC50 (best-fit) (F272A-3): -6.317
- Span (best-fit) (F272A-3): 113.7
- Top (best-fit) (F272A-3): 128.3
- Best-fit Bottom (F294A-1): 3.53
- Best-fit Span (F294A-1): 87.88
- Best-fit Top (F294A-1): 91.41
- LogEC50 (F294A-1): -6.677
- EC50 (F294A-1, read-out: EC50): 211 nM
- Best-fit Bottom (F294A-2): 6.308
- Best-fit Span (F294A-2): 82.91
- Best-fit Top (F294A-2): 89.22
- LogEC50 (F294A-2): -6.828
- EC50 (F294A-2, read-out: EC50): 149 nM
- Best-fit Bottom (F294A-3): 4.16
- Best-fit Span (F294A-3): 103.6
- Best-fit Top (F294A-3): 107.7
- LogEC50 (F294A-3): -6.677
- Emax (Gi signaling, I130A, earlier manuscript version quoted by reviewer, superseded): 91%
- Emax (Gi signaling, Q102A, earlier manuscript version quoted by reviewer, superseded): 109%
- Emax (Gi signaling, SSTR2 D122(3.32)A, detected at 10 μM, n=3): 12.04±1.83 %WT
- Emax (Gi signaling, SSTR2 D295(7.36)A, n=3): 102.80±9.54 %WT
- EC50 (Gi signaling, SSTR2 D295(7.36)A, n=3, read-out: EC50): 4.4 ± 8.48 nM
- Emax (Gi signaling, SSTR2 F127(3.37)A, n=3): 108.70±0.91 %WT
- EC50 (Gi signaling, SSTR2 F127(3.37)A, n=3, read-out: EC50): 1.93 nM
- Emax (Gi signaling, SSTR2 F208(5.38)A, n=3): 96.46±2.20 %WT
- EC50 (Gi signaling, SSTR2 F208(5.38)A, n=3, read-out: EC50): 6.42 ± 2.37 nM
- Emax (Gi signaling, SSTR2 F265(6.44)A, n=3): 99.81±4.55 %WT
- EC50 (Gi signaling, SSTR2 F265(6.44)A, n=3, read-out: EC50): 12.3 ± 5.46 nM
- Emax (Gi signaling, SSTR2 F272A, n=3): 95.01±21.17 %WT
- EC50 (Gi signaling, SSTR2 F272A, n=3, read-out: EC50): 322.3 ± 1.6 nM
- Emax (Gi signaling, SSTR2 F294(7.35)A, n=3): 96.11±5.83 %WT
- EC50 (Gi signaling, SSTR2 F294(7.35)A, n=3, read-out: EC50): 190 ± 2.07 nM
- Emax (Gi signaling, SSTR2 I130(3.40)A, n=3): 101.10±5.08 %WT
- EC50 (Gi signaling, SSTR2 I130(3.40)A, n=3, read-out: EC50): 11.6 ± 4.99 nM
- Emax (Gi signaling, SSTR2 I195(45.52)A, n=3): 100.40±3.58 %WT
- EC50 (Gi signaling, SSTR2 I195(45.52)A, n=3, read-out: EC50): 6.58 ± 1.1 nM
- Emax (Gi signaling, SSTR2 I284ECL3A, n=3): 97.53±14.28 %WT
- EC50 (Gi signaling, SSTR2 I284ECL3A, n=3, read-out: EC50): 1.91 ± 4.66 nM
- Emax (Gi signaling, SSTR2 K291(7.32)A, n=3): 89.41±10.26 %WT
- EC50 (Gi signaling, SSTR2 K291(7.32)A, n=3, read-out: EC50): 5.46 ± 1.06 nM
- Emax (Gi signaling, SSTR2 L99(2.60)A, n=3): 92.36±6.12 %WT
- EC50 (Gi signaling, SSTR2 L99(2.60)A, n=3, read-out: EC50): 1.25 nM
- Emax (Gi signaling, SSTR2 L290(7.31)A, n=3): 103.50±7.16 %WT
- Emax (Gi signaling, SSTR2 N276(6.55)A, n=3): 107.20±5.70 %WT
- EC50 (Gi signaling, SSTR2 N276(6.55)A, n=3, read-out: EC50): 35.1 ± 8.45 nM
- Emax (Gi signaling, SSTR2 P220(5.50)A, n=3): 95.86±14.17 %WT
- EC50 (Gi signaling, SSTR2 P220(5.50)A, n=3, read-out: EC50): 3.37 ± 1.32 nM
- Emax (Gi signaling, SSTR2 P286ECL3A, n=3): 102.40±5.34 %WT
- EC50 (Gi signaling, SSTR2 P286ECL3A, n=3, read-out: EC50): 0.62 ± 1.18 nM
- Emax (Gi signaling, SSTR2 Q102(2.63)A, n=3): 71.48±1.31 %WT
- EC50 (Gi signaling, SSTR2 Q102(2.63)A, n=3, read-out: EC50): 66.8 ± 2.72 nM
- Emax (Gi signaling, SSTR2 Q126(3.36)A, detected at 10 μM, n=3): 21.88±1.91 %WT
- Emax (Gi signaling, SSTR2 S279(6.58)A, n=3): 101.70±5.61 %WT
- EC50 (Gi signaling, SSTR2 S279(6.58)A, n=3, read-out: EC50): 1.17 ± 1.01 nM
- Emax (Gi signaling, SSTR2 S285ECL3A, n=3): 87.52±6.00 %WT
- EC50 (Gi signaling, SSTR2 S285ECL3A, n=3, read-out: EC50): 0.69 ± 1.18 nM
- Emax (Gi signaling, SSTR2 T194(45.51)A, n=3): 91.51±3.38 %WT
- EC50 (Gi signaling, SSTR2 T194(45.51)A, n=3, read-out: EC50): 48.5 ± 2.29 nM
- Emax (Gi signaling, SSTR2 T287ECL3A, n=3): 98.50±5.26 %WT
- EC50 (Gi signaling, SSTR2 T287ECL3A, n=3, read-out: EC50): 0.6 nM
- Emax (Gi signaling, SSTR2 V103(2.64)A, n=3): 90.80±3.48 %WT
- EC50 (Gi signaling, SSTR2 V103(2.64)A, n=3, read-out: EC50): 7.66 ± 2.51 nM
- Emax (Gi signaling, SSTR2 W188ECL3A, n=3): 102.40±5.12 %WT
- EC50 (Gi signaling, SSTR2 W188ECL3A, n=3, read-out: EC50): 0.32 nM
- Emax (Gi signaling, SSTR2 W269(6.48)A, n=3): 99.58±2.56 %WT
- EC50 (Gi signaling, SSTR2 W269(6.48)A, n=3, read-out: EC50): 0.89 ± 2.24 nM
- Emax (Gi signaling, SSTR2 Y50(1.39)A, n=3): 104.70±0.48 %WT
- EC50 (Gi signaling, SSTR2 Y50(1.39)A, n=3, read-out: EC50): 0.46 nM
- Emax (Gi signaling, SSTR2 Y205(5.35)A, n=3): 112.90±25.77 %WT
- EC50 (Gi signaling, SSTR2 Y205(5.35)A, n=3, read-out: EC50): 0.92 nM
- Emax (Gi signaling, SSTR2 Y302(7.43)A, n=3): 79.09±10.74 %WT
- EC50 (Gi signaling, SSTR2 Y302(7.43)A, n=3, read-out: EC50): 79 ± 2.7 nM
- Bottom (best-fit value) (I284A-1, run 1): 8.872
- LogEC50 (best-fit value) (I284A-1, run 1): -8.868
- Span (best-fit value) (I284A-1, run 1): 107.4
